Measurements as given in patent publication US20230271969A1, “NITROGEN-CONTAINING FUSED RING DERIVATIVE INHIBITOR, PREPARATION METHOD THEREFOR AND USE THEREOF” (Shanghai Hansoh Biomedical Co., Ltd., priority 2020, published 2023).

Tested on: Senktide-induced bilateral ovariectomy rats
Experiment: Tail skin temperature in a Senktide-induced bilateral ovariectomy rat model
Format: in vivo
Settings: OVX SD rats, oral 30 mg/kg, 30 min before s.c. Senktide, tail skin temperature over 75 min
Excerpt: Pharmacodynamic Study of the Test Compounds on Tail Skin Temperature in a Senktide-Induced Bilateral Ovariectomy Rat Model
To evaluate the effect of the test compounds on tail skin temperature in Senktide-induced bilateral ovariectomy rats.
2.3. Experimental Animals • Ten-Week-old female bilateral ovariectomy SD rats were purchased from Beijing Vital River Laboratory Animal Technology Co., Ltd. The animals were housed in a SPF grade animal facility with 5 SD rats per cage. The cages, bedding, feed and water were disinfected at high temperatures before use. All animals had free access to food and water.
Ten-week-old female SD rats were subjected to bilateral ovariectomy and recovered for two weeks, and then randomly divided into negative control group, model group and drug administration group (8 rats per group), based on body weight. The probe was attached to the dorsal surface of the rat tail with medical tape, 1-2 cm away from the tailhead of the rat.
The vehicle was administered orally to the negative control group and the model group, and different test compounds were administered orally to each drug administration group at a dose of 30 mg/kg and a volume of 10 mL/kg.
Thirty minutes after the oral administration of the vehicle or test compound, the negative control group was injected subcutaneously with normal saline (at a volume of 5 mL/kg); the model group and each drug administration group were injected subcutaneously with 0.2 mg/mL of Senktide (at a volume of 5 mL/kg) to induce the hot flashes-like symptom.
The change in tail skin temperature (ΔTST) at each time point relative to time point 0 was calculated, the ΔTST-time curve of the change in tail skin temperature was plotted, and the area under curve (AUCΔTST) was calculated. ΔTST=TSTn−TST0, TST0 is the tail skin temperature at 0 minute before the subcutaneous injection of normal saline or Senktide; TSTn is the tail skin temperature at the n minute after the subcutaneous injection.
AUCΔTST=Σ(ΔTSTn+ΔTSTn+5)*5/2

SMILES: [2H]c1cc(C(=O)N2CCn3c(-c4nc(Cl)ns4)nnc3[C@H]2C)ccc1F [Example 56, (R)-(3-(3-Chloro-1,2,4-thiadiazol-5-yl)-8-methyl-5,6-dihydro-[1,2,4]triazolo[4,3-a]pyrazin-7(8H)-yl)(4-fluorophenyl-3-d)methanone]
- AUCΔTST: 53.8 ± 19.8 °C · min
